Consider 20 compounds from patent US8604046B2, “Substituted piperidine spiro pyrrolidinone and piperidinone, preparation and therapeutic use thereof” (Sanofi, priority 2008, dated 2013).

Assay [1] addresses T1, rhesus H3 receptor (Macaca mulatta, UniProt Q865E1). As to the kind of experiment: GTPγS radioligand binding assay, inhibition of rhesus H3 constitutive functional activity (inverse agonism). Also on record: concentration or dose not given beside the values. The note with it: rhesus H3 cell membranes, relative to basal levels. Type of assay: biochemical, rhesus monkey (Macacca Mulatta). As to the method: (§1) Rhesus H3 membranes were prepared from the Flp-In T-REx 293 Cell Line (Invitrogen) stably transfected with pcDNA5/FRT/TO (Invitrogen) containing the rhesus monkey (Macacca Mulatta) 445 amino acid H3 receptor. (Genbank #AY231164). Stably transfected cultures were amplified in tissue culture flasks by standard tissue culture methods and induced to express rhesus H3 by exposure to 500 ng/ml tetracycline (Cellgro) for 24 hours. After induction, cells were dissociated from flasks utilizing Cell Stripper (Cellgro). Cells were centrifuged (1K×g, 5 min) and pellet frozen in an ethanol-dry ice bath to disrupt cell membranes. Frozen cell pellet was re-suspended in 5 mM HEPES (pH 7.4, Invitrogen) at 10 ml/1000 cm2 of harvested cells. The cell suspension was drawn through an 18 gauge needle (2-3×) followed by a 23 gauge needle (2-3×) to further disrupt cell membranes. The cell suspension was centrifuged (40K×g, 30 min). Cell membrane pellet was re-suspended in 5 mM HEPES (pH 7.4, Invitrogen) at a final protein concentration of 10 mg/ml. Rhesus H3 membranes were stored under liquid nitrogen prior to use in [3H]-Methylhistamine and GTP S radioligand binding assays.

The target in assay [2] is T1, rhesus H3 receptor. Briefly: Rhesus H3 [3H]-methylhistamine radioligand binding assay. Also noted: species or system rhesus monkey (Macacca Mulatta). The note with it: [3H]-Methylhistamine 2 nM, rhesus H3 membranes, WGA SPA beads, Cheng-Prusoff. As to the method:
as §1
Rhesus H3 radioligand binding assay was performed using rhesus H3 receptor membranes (prepared as described above), [3H]-Methylhistamine (Perkin Elmer) and WGA SPA beads (wheat germ agglutinin scintillation proximity assay) beads (Amersham). The assay was performed in 96-well Opti-Plates (Packard). Each reaction contained 50 μl rhesus H3 membranes (20-30 μg total protein), 50 μl WGA SPA beads (0.1 μg) and 50 μl of 83 Ci/mmol [^3H]-Methylhistamine (final concentration 2 nM) and 50 μl of tested compound. The compounds of this invention and/or vehicle were diluted with binding buffer from 10 mM DMSO stocks. Assay plates were sealed with TopSeal (Perkin Elmer) and mixed on shaker (25° C., 1 hour). Assay plates were read on TopCount scintillation counter (Packard). Results were analyzed by Hill transformation and Ki values were determined by Cheng-Prusoff equation.

T1 sequence (Q865E1 1-445): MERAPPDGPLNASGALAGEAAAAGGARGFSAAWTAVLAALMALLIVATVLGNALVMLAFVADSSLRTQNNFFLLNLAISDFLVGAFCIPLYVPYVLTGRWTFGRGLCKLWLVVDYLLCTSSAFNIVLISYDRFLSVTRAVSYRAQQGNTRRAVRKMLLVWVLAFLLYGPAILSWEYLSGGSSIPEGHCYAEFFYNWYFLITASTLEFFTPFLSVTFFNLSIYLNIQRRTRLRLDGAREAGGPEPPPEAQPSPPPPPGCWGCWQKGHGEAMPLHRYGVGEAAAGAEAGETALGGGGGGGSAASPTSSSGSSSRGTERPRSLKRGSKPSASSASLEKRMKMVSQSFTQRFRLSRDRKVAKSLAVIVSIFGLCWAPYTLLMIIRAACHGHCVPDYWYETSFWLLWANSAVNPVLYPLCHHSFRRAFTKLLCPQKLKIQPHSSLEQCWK

The Ki is a measure of affinity in units of concentration, obtained from inhibition or displacement. With `C[C@H]1CCCN1C1CCN(c2ccc(N3CCC4(CCNCC4)C3=O)c(C(F)(F)F)c2)CC1.Cl` [Example 45, 2-{4-[4-(2S-2-Methyl-pyrrolidin-1-yl)-piperidin-1-yl]-2-trifluoromethyl-phenyl}-2,8-diaza-spiro[4.5]decan-1-one Hydrochloride], the “Inverse Agonism: % inhibition of Basal GTPγS binding in Rhesus H3” value (from here on “Inverse Agonism: % inhibition”) at rhesus H3 receptor [1] was −19%. The compound further gave a Ki at rhesus H3 receptor [2] of 0.15 nM.
For `C[C@H]1CCCN1C1CCN(c2ccc(N3CCC4(CCNCC4)C3=O)c(F)c2)CC1.Cl` [Example 46, 2-{4-[4-(2S-2-Methyl-pyrrolidin-1-yl)-piperidin-1-yl]-2-fluoro-phenyl}-2,8-diaza-spiro[4.5]decan-1-one Hydrochloride] the same measures were −24% and 0.1 nM.
For `C[C@H]1CCCCN1[C@H]1CCN(c2ccc(N3CCC4(CCNCC4)C3=O)cc2)C1.Cl` [Example 47, 2-{4-[3-((2S,3′S)-2-Methyl-piperidin-1-yl)-pyrrolidin-1-yl]-phenyl}-2,8-diaza-spiro[4.5]decan-1-one Hydrochloride] the same measures were −17% and 0.4 nM.
Consider `C[C@H]1CCCCN1[C@H]1CCN(c2ccc(N3CCC4(CCNCC4)C3=O)c(C(F)(F)F)c2)C1.Cl` [Example 48, 2-{4-[3-((2S,3′S)-2-Methyl-piperidin-1-yl)-pyrrolidin-1-yl]-2-trifluoromethyl-phenyl}-2,8-diaza-spiro[4.5]decan-1-one Hydrochloride], for which the “Inverse Agonism: % inhibition” value on rhesus H3 receptor [1] is recorded as −24%. On rhesus H3 receptor [2], this compound showed a Ki of 0.6 nM.
For `C[C@H]1CCCCN1[C@H]1CCN(c2ccc(N3CCC4(CCNCC4)C3=O)c(F)c2)C1.Cl` [Example 49, 2-{4-[3-((2S,3′S)-2-Methyl-piperidin-1-yl)-pyrrolidin-1-yl]-2-fluoro-phenyl}-2,8-diaza-spiro[4.5]decan-1-one Hydrochloride] the same measures were −22% and 0.5 nM.
For `C[C@H]1CCCN1C1CCN(c2ccc(N3CCC4(CCN(S(=O)(=O)c5ccccc5)CC4)C3=O)cc2)CC1` [Example 50, 8-Benzenesulfonyl-2-{4-[4-(2S-2-methyl-pyrrolidin-1-yl)-piperidin-1-yl]-phenyl}-2,8-diaza-spiro[4.5]decan-1-one] the same measures were −23% and 0.24 nM.
With `C[C@H]1CCCN1C1CCN(c2ccc(N3CCC4(CCN(C(=O)c5ccc(F)cc5)CC4)C3=O)cc2)CC1` [Example 51, 8-(4-Fluoro-benzoyl)-2-{4-[4-(2S-2-methyl-pyrrolidin-1-yl)-piperidin-1-yl]-phenyl}-2,8-diaza-spiro[4.5]decan-1-one], the “Inverse Agonism: % inhibition” value on rhesus H3 receptor [1] is reported as −17%. Moreover, on rhesus H3 receptor [2], the Ki was 0.08 nM.
For `C[C@H]1CCCN1C1CCN(c2ccc(N3CCC4(CCN(C(=O)C5CCCCC5)CC4)C3=O)c(F)c2)CC1` [Example 52, 8-Cyclohexanecarbonyl-2-{2-fluoro-4-[4-(2S-2-methyl-pyrrolidin-1-yl)-piperidin-1-yl]-phenyl}-2,8-diaza-spiro[4.5]decan-1-one] the same measures were −24% and 0.2 nM.
For `C[C@H]1CCCCN1[C@H]1CCN(c2ccc(N3CCC4(CCN(S(=O)(=O)c5ccc(F)cc5)CC4)C3=O)cc2)C1` [Example 53, 8-(4-Fluoro-benzenesulfonyl)-2-{4-[3-((2S,3′S)-2-methyl-piperidin-1-yl)-pyrrolidin-1-yl]-phenyl}-2,8-diaza-spiro[4.5]decan-1-one] the same measures were −13% and 1.9 nM.
With `C[C@H]1CCCCN1[C@H]1CCN(c2ccc(N3CCC4(CCN(C(=O)C5CCOCC5)CC4)C3=O)cc2)C1` [Example 54, 2-{4-[3-((2S,3′S)-2-Methyl-piperidin-1-yl)-pyrrolidin-1-yl]-phenyl}-8-(tetrahydro-pyran-4-carbonyl)-2,8-diaza-spiro[4.5]decan-1-one], the “Inverse Agonism: % inhibition” value at rhesus H3 receptor [1] is given as −24%. At rhesus H3 receptor [2], this compound came in with a Ki of 3.3 nM.
For `C[C@H]1CCCCN1[C@H]1CCN(c2ccc(N3CCC4(CCN(C(=O)C5CCCC5)CC4)C3=O)c(C(F)(F)F)c2)C1` [Example 55, 8-Cyclopentanecarbonyl-2-{4-[3-((2S,3′S)-2-methyl-piperidin-1-yl)-pyrrolidin-1-yl]-2-trifluoromethyl-phenyl}-2,8-diaza-spiro[4.5]decan-1-one], the “Inverse Agonism: % inhibition” value at rhesus H3 receptor [1] was −27%. For the same compound, at rhesus H3 receptor [2], the Ki came to 2.1 nM.
With `C[C@H]1CCCN1C1CCN(c2ccc(N3CCC4(CCN(CC5CC5)CC4)C3=O)c(F)c2)CC1` [Example 56, 8-Cyclopropylmethyl-2-{2-fluoro-4-[4-(2S-2-methyl-pyrrolidin-1-yl)-piperidin-1-yl]-phenyl}-2,8-diaza-spiro[4.5]decan-1-one], the “Inverse Agonism: % inhibition” value on rhesus H3 receptor [1] was −23%. Besides, the Ki at rhesus H3 receptor [2] turned out to be 0.04 nM.
`C[C@H]1CCCN1C1CCN(c2ccc(N3CCC4(CCN(CC5CCCC5)CC4)C3=O)c(F)c2)CC1` [Example 57, 8-Cyclopentyl methyl-2-{2-fluoro-4-[4-(2S-2-methyl-pyrrolidin-1-yl)-piperidin-1-yl]-phenyl}-2,8-diaza-spiro[4.5]decan-1-one]: the “Inverse Agonism: % inhibition” value at rhesus H3 receptor [1] is −21%. The Ki at rhesus H3 receptor [2] was 0.1 nM.
For `C[C@H]1CCCCN1[C@H]1CCN(c2ccc(N3CCC4(CCN(CC5CCCCC5)CC4)C3=O)c(C(F)(F)F)c2)C1` [Example 58, 8-Cyclohexyl methyl-2-{4-[3-((2S,3′S)-2-methyl-piperidin-1-yl)-pyrrolidin-1-yl]-2-trifluoromethyl-phenyl}-2,8-diaza-spiro[4.5]decan-1-one] the same measures were −19% and 0.15 nM.
For `C[C@H]1CCCCN1[C@H]1CCN(c2ccc(N3CCC4(CCN(CC5CCOCC5)CC4)C3=O)c(F)c2)C1` [Example 59, 2-{2-Fluoro-4-[3-((2S,3′S)-2-methyl-piperidin-1-yl)-pyrrolidin-1-yl]-phenyl}-8-(tetrahydro-pyran-4-ylmethyl)-2,8-diaza-spiro[4.5]decan-1-one] the same measures were −19% and 4.6 nM.
For `C[C@H]1CCCN1[C@H]1CCN(c2ccc(N3CCC4(CCN(C(=O)Cc5ccccc5)CC4)C3=O)c(C(F)(F)F)c2)C1` [Example 60, 2-[4-((2S,3′S)-2-Methyl-[1,3′]bipyrrolidinyl-1′-yl)-2-trifluoromethyl-phenyl]-8-phenylacetyl-2,8-diaza-spiro[4.5]decan-1-one] the same measures were −19% and 144 nM.
Regarding `COCC(=O)N1CCC2(CC1)CCN(c1ccc(N3CC[C@H](N4CCC[C@@H]4C)C3)cc1C(F)(F)F)C2=O` [Example 61, 8-(2-Methoxy-acetyl)-2-[4-((2S,3′S)-2-methyl-[1,3′]bipyrrolidinyl-1′-yl)-2-trifluoromethyl-phenyl]-2,8-diaza-spiro[4.5]decan-1-one], the “Inverse Agonism: % inhibition” value at rhesus H3 receptor [1] was −7%. On rhesus H3 receptor [2], this compound returned a Ki of 193 nM.
For `C[C@H]1CCCN1[C@H]1CCN(c2ccc(N3CCC4(CCN(C(=O)c5ccc6ccccc6c5)CC4)C3=O)c(C(F)(F)F)c2)C1` [Example 62, 2-[4-((2S,3′S)-2-Methyl-[1,3′]bipyrrolidinyl-1′-yl)-2-trifluoromethyl-phenyl]-8-(naphthalene-2-carbonyl)-2,8-diaza-spiro[4.5]decan-1-one] the same measures were −19% and 8.1 nM.
As to `C[C@H]1CCCN1[C@H]1CCN(c2ccc(N3CCC4(CCN(C(=O)c5ccccc5)CC4)C3=O)c(C(F)(F)F)c2)C1` [Example 63, 8-Benzoyl-2-[4-((2S,3′S)-2-methyl-[1,3′]bipyrrolidinyl-1′-yl)-2-trifluoromethyl-phenyl]-2,8-diaza-spiro[4.5]decan-1-one], the “Inverse Agonism: % inhibition” value at rhesus H3 receptor [1] is reported as −18%. The compound also came in with a Ki at rhesus H3 receptor [2] of 64 nM.
For `C[C@H]1CCCN1[C@H]1CCN(c2ccc(N3CCC4(CCN(C(=O)c5ccoc5)CC4)C3=O)c(C(F)(F)F)c2)C1` [Example 64, 8-(Furan-3-carbonyl)-2-[4-((2S,3′S)-2-methyl-[1,3′]bipyrrolidinyl-1′-yl)-2-trifluoromethyl-phenyl]-2,8-diaza-spiro[4.5]decan-1-one] the same measures were −19% and 9.6 nM.
